Measurements from the supplement of paper PMC10307832.

Assays:
Experiment in all cases: relative viability (nuclei count vs DMSO), 5 days (fraction); higher = more cells survive
Etoposide + Dasatinib = compound: COc1cc([C@@H]2c3cc4c(cc3[C@@H](O[C@@H]3O[C@@H]5CO[C@@H](C)O[C@H]5[C@H](O)[C@H]3O)[C@H]3COC(=O)[C@H]23)OCO4)cc(OC)c1O [Etoposide] + Cc1nc(Nc2ncc(C(=O)Nc3c(C)cccc3Cl)s2)cc(N2CCN(CCO)CC2)n1 [Dasatinib] (partner 0.075 µM)
Method in brief: (§1)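 Five library-drug doses in √10 steps were combined with a fixed anchor-drug dose, or a single drug was given alone, by pin tool to lung cancer cell lines in 1536-well plates the day after seeding. Nuclei were stained and counted after 5 days. Relative viability is the nuclei count in treated wells over that in vehicle wells, taken as the median of duplicate plates.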

Bleomycin + OSI-027 = compound: CC1=C(N=C(N=C1N)[C@H](CC(=O)N)NC[C@@H](C(=O)N)N)C(=O)N[C@@H]([C@H](C2=CN=CN2)OC3C(C(C(C(O3)CO)O)O)OC4C(C(C(C(O4)CO)O)OC(=O)N)O)C(=O)N[C@H](C)[C@H]([C@H](C)C(=O)N[C@@H]([C@@H](C)O)C(=O)NCCC5=NC(=CS5)C6=NC(=CS6)C(=O)NCCC[S+](C)C)O [Bleomycin] + COc1cccc2cc(-c3nc([C@H]4CC[C@H](C(=O)O)CC4)n4ncnc(N)c34)[nH]c12 [OSI-027] (partner 0.5 µM); conditions: main component drawn
Method in brief: as §1

Bleomycin + Pictilisib = compound: CC1=C(N=C(N=C1N)[C@H](CC(=O)N)NC[C@@H](C(=O)N)N)C(=O)N[C@@H]([C@H](C2=CN=CN2)OC3C(C(C(C(O3)CO)O)O)OC4C(C(C(C(O4)CO)O)OC(=O)N)O)C(=O)N[C@H](C)[C@H]([C@H](C)C(=O)N[C@@H]([C@@H](C)O)C(=O)NCCC5=NC(=CS5)C6=NC(=CS6)C(=O)NCCC[S+](C)C)O [Bleomycin] + CS(=O)(=O)N1CCN(Cc2cc3nc(-c4cccc5[nH]ncc45)nc(N4CCOCC4)c3s2)CC1 [Pictilisib] (partner 1 µM); conditions: main component drawn
Method in brief: as §1

Etoposide + Lapatinib = compound: COc1cc([C@@H]2c3cc4c(cc3[C@@H](O[C@@H]3O[C@@H]5CO[C@@H](C)O[C@H]5[C@H](O)[C@H]3O)[C@H]3COC(=O)[C@H]23)OCO4)cc(OC)c1O [Etoposide] + CS(=O)(=O)CCNCc1ccc(-c2ccc3ncnc(Nc4ccc(OCc5cccc(F)c5)c(Cl)c4)c3c2)o1 [Lapatinib] (partner 2 µM)
Method in brief: as §1

Cell Line	relative viability (Etoposide + Dasatinib; first compound 0.01 µM)	relative viability (Etoposide + Dasatinib; first compound 0.03162 µM)	relative viability (Etoposide + Dasatinib; first compound 0.1 µM)	relative viability (Etoposide + Dasatinib; first compound 0.3162 µM)	relative viability (Etoposide + Dasatinib; first compound 1 µM)	relative viability (Bleomycin + OSI-027; first compound 0.01 µM)	relative viability (Bleomycin + OSI-027; first compound 0.03162 µM)	relative viability (Bleomycin + OSI-027; first compound 0.1 µM)	relative viability (Bleomycin + OSI-027; first compound 0.3162 µM)	relative viability (Bleomycin + OSI-027; first compound 1 µM)	relative viability (Bleomycin + Pictilisib; first compound 0.01 µM)	relative viability (Bleomycin + Pictilisib; first compound 0.03162 µM)	relative viability (Bleomycin + Pictilisib; first compound 0.1 µM)	relative viability (Bleomycin + Pictilisib; first compound 0.3162 µM)	relative viability (Bleomycin + Pictilisib; first compound 1 µM)	relative viability (Etoposide + Lapatinib; first compound 0.01 µM)	relative viability (Etoposide + Lapatinib; first compound 0.03162 µM)	relative viability (Etoposide + Lapatinib; first compound 0.1 µM)	relative viability (Etoposide + Lapatinib; first compound 0.3162 µM)	relative viability (Etoposide + Lapatinib; first compound 1 µM)
NCI-H522	0.861	0.883	0.805	0.895	0.874	0.662	0.619	0.593	0.419	0.432	–	–	–	–	–	–	–	–	–	–
HCC-15	0.623	0.64	0.537	0.261	0.0797	0.645	0.612	0.533	0.182	0.152	0.685	0.693	0.627	0.199	0.219	0.849	0.832	0.846	0.329	0.152
A-427	0.702	0.818	0.435	0.446	0.2	0.332	0.439	0.34	0.187	0.144	0.58	0.488	0.492	0.155	0.174	1.04	1.06	0.807	0.604	0.196
NCI-H23	0.805	0.821	0.504	0.384	0.185	0.361	0.401	0.272	0.141	0.145	0.262	0.348	0.263	0.169	0.153	1.11	1.04	0.608	0.324	0.215
NCI-H1734	0.415	0.449	0.312	0.436	0.21	0.565	0.544	0.465	0.254	0.226	0.382	0.411	0.357	0.267	0.22	0.971	1.05	0.612	0.515	0.273
NCI-H2087	0.672	1.06	0.653	0.553	0.166	–	0.515	0.379	0.123	0.126	0.766	0.874	0.775	0.236	0.247	–	0.83	0.912	0.551	0.278
PC-3 [JPC-3]	0.915	0.915	0.871	0.961	0.927	0.687	0.789	0.648	0.506	0.41	0.681	0.681	0.768	0.569	0.466	0.432	0.487	0.344	0.475	0.374
NCI-H1915	0.31	0.413	0.236	0.326	0.286	0.434	0.429	0.373	0.21	0.144	0.575	0.65	0.535	0.247	0.146	0.907	1.03	0.913	0.749	0.524
NCI-H1666	0.796	0.802	0.594	0.361	0.293	0.678	0.671	0.636	0.515	0.408	0.428	0.375	0.391	0.183	0.256	0.616	0.692	0.371	0.305	0.28
HCC-366	0.644	0.774	0.36	0.178	0.0448	0.675	0.643	0.471	0.122	0.119	0.133	0.128	0.09	0.0658	0.0477	0.978	0.882	0.382	0.0593	0.0394
SK-MES-1	0.315	0.388	0.429	0.286	0.131	0.506	0.588	0.57	0.262	0.16	0.432	0.274	0.307	0.201	0.116	0.461	0.538	0.368	0.426	0.272
NCI-H727	0.4	0.355	–	0.37	0.408	0.731	0.685	0.637	–	0.528	0.375	0.299	0.268	0.239	0.357	0.844	0.937	0.511	0.665	0.589
RERF-LC-KJ	0.602	0.899	0.707	0.73	0.494	0.378	0.364	0.314	0.244	0.239	0.269	0.433	0.316	0.188	0.167	0.882	0.863	0.626	0.828	0.733
NCI-H1623	0.68	0.592	0.334	0.267	0.294	0.406	0.432	0.464	0.363	0.322	–	–	–	–	–	–	–	–	–	–
Calu-6	–	–	–	–	–	–	–	–	–	–	0.575	0.537	0.385	0.179	0.177	1.04	0.903	1.13	0.435	0.284
LC-2-ad	0.546	0.612	0.451	0.244	0.142	0.552	0.711	0.382	0.302	0.221	0.255	0.368	0.292	0.173	0.106	0.867	0.961	0.906	0.649	0.154
CAL-12T	0.345	0.473	0.351	0.396	0.196	0.551	0.465	0.389	0.21	0.174	–	0.588	0.394	0.207	0.236	0.73	0.688	0.434	0.52	0.356

Cell Line	relative viability (Etoposide + Dasatinib; first compound 0.01 µM)	relative viability (Etoposide + Dasatinib; first compound 0.03162 µM)	relative viability (Etoposide + Dasatinib; first compound 0.1 µM)	relative viability (Etoposide + Dasatinib; first compound 0.3162 µM)	relative viability (Etoposide + Dasatinib; first compound 1 µM)	relative viability (Bleomycin + OSI-027; first compound 0.01 µM)	relative viability (Bleomycin + OSI-027; first compound 0.03162 µM)	relative viability (Bleomycin + OSI-027; first compound 0.1 µM)	relative viability (Bleomycin + OSI-027; first compound 0.3162 µM)	relative viability (Bleomycin + OSI-027; first compound 1 µM)	relative viability (Bleomycin + Pictilisib; first compound 0.01 µM)	relative viability (Bleomycin + Pictilisib; first compound 0.03162 µM)	relative viability (Bleomycin + Pictilisib; first compound 0.1 µM)	relative viability (Bleomycin + Pictilisib; first compound 0.3162 µM)	relative viability (Bleomycin + Pictilisib; first compound 1 µM)	relative viability (Etoposide + Lapatinib; first compound 0.01 µM)	relative viability (Etoposide + Lapatinib; first compound 0.03162 µM)	relative viability (Etoposide + Lapatinib; first compound 0.1 µM)	relative viability (Etoposide + Lapatinib; first compound 0.3162 µM)	relative viability (Etoposide + Lapatinib; first compound 1 µM)
SK-LU-1	0.172	0.177	0.172	0.14	0.122	0.338	0.417	0.366	0.272	0.206	0.434	0.638	0.474	0.352	0.282	0.752	0.949	0.375	0.261	0.202
NCI-H1650	0.302	0.381	0.315	0.211	0.127	0.468	0.332	0.227	0.171	0.151	0.408	0.318	0.255	0.139	0.125	0.696	0.781	0.479	0.217	0.144
BEN	0.353	0.416	–	0.304	0.351	0.284	0.299	0.286	0.243	0.288	0.573	0.57	0.54	0.389	0.435	0.81	0.733	–	0.663	0.458
EMC-BAC-2	0.319	0.333	0.193	0.16	0.112	0.298	0.326	0.304	0.257	0.159	0.498	0.489	0.427	0.282	0.222	0.855	0.822	0.572	0.344	0.215
LU99A	0.427	0.727	0.262	0.395	0.142	0.253	0.289	0.259	0.234	0.161	0.249	0.233	0.191	0.152	0.137	1.09	1.18	0.521	0.347	0.167
NCI-H1299	–	–	–	–	–	–	–	–	–	–	0.65	0.571	0.367	0.149	0.154	0.952	0.983	1.03	0.776	0.817
EBC-1	–	–	–	–	–	–	–	–	–	–	0.359	0.376	0.346	0.272	0.283	0.2	0.245	–	0.214	0.196
NCI-H441	0.58	0.677	0.398	0.285	0.147	0.404	0.735	0.534	0.383	0.283	–	0.439	0.482	0.316	0.267	–	–	–	–	–
NCI-H2342	0.317	0.315	0.3	0.229	0.254	0.676	0.634	0.598	0.507	0.511	–	–	–	–	–	–	–	–	–	–
ChaGo-K-1	0.479	0.59	0.51	0.441	0.146	0.46	0.536	0.5	0.302	0.179	–	0.728	0.655	0.406	0.217	–	–	–	–	–
HCC-44	–	–	–	–	–	0.279	0.38	0.248	0.205	0.175	0.385	0.477	0.271	0.211	0.246	0.989	0.953	1.06	0.833	0.245
A549	–	–	–	–	–	–	–	–	–	–	0.4	0.389	0.323	0.0899	0.0479	0.957	0.811	0.537	0.244	0.111
SW 900	0.62	0.659	0.395	0.591	0.147	0.428	0.336	0.425	0.15	0.134	–	–	–	–	–	–	–	–	–	–
IA-LM	–	–	–	–	–	–	–	–	–	–	0.331	0.29	0.356	0.211	0.215	0.704	0.614	0.78	0.666	0.301
NCI-H1703	–	–	–	–	–	–	–	–	–	–	0.226	0.236	0.26	0.219	0.176	–	1.14	0.866	0.376	0.271
LCLC-103H	0.466	0.482	0.417	0.546	0.42	0.39	0.451	0.468	0.34	0.219	0.638	0.573	0.54	0.34	0.255	–	–	–	–	–
NCI-H1648	–	–	–	–	–	0.274	–	0.257	0.246	0.274	–	–	–	–	–	–	–	–	–	–
